In general, Kb refers to the equilibrium dissociation constant of an antagonist, usually derived from a functional assay.

Twelve compounds from patent US9174977B2, “2-azabicyclo[4.1.0]heptane derivatives as orexin receptor antagonists for the treatment of certain disorders” (Rottapharm Biotech S.r.l., priority 2012, dated 2015) can be followed below.

One test deals with T1, human OX1 receptors (Homo sapiens, UniProt O43613).
T1 construct: expressed in transfected cells; host or cells: CHO cells
T1 sequence (O43613 1-425): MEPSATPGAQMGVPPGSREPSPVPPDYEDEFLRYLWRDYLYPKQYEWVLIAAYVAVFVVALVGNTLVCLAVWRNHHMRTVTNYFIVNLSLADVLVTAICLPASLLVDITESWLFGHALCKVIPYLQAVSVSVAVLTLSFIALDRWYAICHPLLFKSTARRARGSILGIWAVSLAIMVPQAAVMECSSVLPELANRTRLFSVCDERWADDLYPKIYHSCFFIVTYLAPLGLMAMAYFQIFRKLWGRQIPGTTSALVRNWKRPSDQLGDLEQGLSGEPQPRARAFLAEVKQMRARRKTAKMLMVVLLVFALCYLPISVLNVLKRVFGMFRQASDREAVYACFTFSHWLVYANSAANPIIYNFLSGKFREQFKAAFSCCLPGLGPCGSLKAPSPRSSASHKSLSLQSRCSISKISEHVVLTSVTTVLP
The experiment in a line: antagonistic activity against human OX1 receptor, calcium fluorimetry (Fluo-4NW) in transfected CHO cells. The test is classed as cell-based. Particulars: CHO cells transfected with human recombinant OX1, activated with orexin-A 3 nM; pKb = co-logarithm of apparent dissociation constant (modified Cheng Prusoff). As for the experimental part: (§1) In a typical experiment, the antagonistic activity against human OX1 and OX2 receptors is determined by using CHO e HEK-293 cells transfected with human recombinant OX1 and OX2 receptors respectively, seeded at density of 2 and 3×10^4 cells/well respectively in a 96 fluorimetry well plate. Thus the plate was loaded with the calcium dye (Fluo-4NW/probenecid in HBSS, Hepes 20 mM, pH 7,4; Invitrogen) at 37° C. for 60 min. Afterward the temperature was equilibrated at 22° C. for 15 min and the [Ca2+]i measured directly on the plate by using a fluorescent plate reader (CellLux Perkin Elmer).
(§2) Invention compounds were dissolved in DMSO, diluted in HBSS (DMSO, 0.3% final) and added to the wells. After 5 min CHO cells were activated with orexin-A, 3 nM while HEK-293 cells were activated with orexin-B, 10 nM.
(§3) The compounds, dissolved in DMSO and diluted in the medium (DMSO, 0.3% final), have been analysed in the 1 nM-1 μM concentration range (every concentration in duplicate). The antagonistic activity has been expressed as pKb (co-logarithm of the apparent dissociation constant calculated by using the modified Cheng Prusoff equation).
(§4) The results are expressed as percent of control specific […] response ((measured specific response/control specific agonist response)×100) obtained in the presence of the test compounds.
(§5) The IC50 values (concentration causing a half-maximal inhibition of the control specific agonist response) were determinated by non-linear regression analysis of the concentration curves generated with mean replicate values using hill equation curve fitting. The IC50 values are obtained by the arithmetical mean of at least two experiments.

For a further test, the target named is T2, human OX2 receptors (Homo sapiens, UniProt O43614).
T2 construct: expressed in transfected cells; host or cells: HEK-293 cells
T2 sequence (O43614 1-444): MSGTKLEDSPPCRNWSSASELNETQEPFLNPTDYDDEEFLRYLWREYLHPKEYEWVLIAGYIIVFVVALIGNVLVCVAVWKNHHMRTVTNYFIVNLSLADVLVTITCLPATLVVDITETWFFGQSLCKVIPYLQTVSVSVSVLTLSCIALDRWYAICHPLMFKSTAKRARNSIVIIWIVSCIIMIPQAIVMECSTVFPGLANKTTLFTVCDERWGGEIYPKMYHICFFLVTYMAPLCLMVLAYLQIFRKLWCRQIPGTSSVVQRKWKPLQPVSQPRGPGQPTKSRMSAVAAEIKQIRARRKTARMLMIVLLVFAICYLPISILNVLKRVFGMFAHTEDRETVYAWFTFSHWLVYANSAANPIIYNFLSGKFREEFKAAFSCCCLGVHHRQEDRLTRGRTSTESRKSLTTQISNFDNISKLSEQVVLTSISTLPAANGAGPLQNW
The experiment in a line: antagonistic activity against human OX2 receptor, calcium fluorimetry (Fluo-4NW) in transfected HEK-293 cells. Particulars: HEK-293 cells transfected with human recombinant OX2, activated with orexin-B 10 nM; pKb = co-logarithm of apparent dissociation constant (modified Cheng Prusoff). The test is classed as cell-based. The method, then: as §1, §2, §3, §4, §5

As to `Cc1nc(C(=O)N2[C@H](CNc3ccc(C(F)(F)F)cn3)CC[C@@H]3C[C@@H]32)c(-c2ccccc2)s1` [Compound 5a, (2-methyl-5-phenylthiazol-4-yl)((1S,3S,6R)-3-(((5-(trifluoromethyl)pyridin-2-yl)amino)methyl)-2-azabicyclo[4.1.0]heptan-2-yl)methanone], the antagonist dissociation constant (Kb) was 2.51 nM on human OX1 receptors and 50.1 nM at human OX2 receptors.

`O=C(c1cc(Cl)ccc1-c1ncccn1)N1[C@H](COc2ccc(F)cn2)CC[C@H]2C[C@H]21` [Compound 3c, (5-chloro-2-(pyrimidin-2-yl)phenyl)((1R,3S,6S)-3-(((5-fluoropyridin-2-yl)oxy)methyl)-2-azabicyclo[4.1.0]heptan-2-yl)methanone]: the Kb on human OX1 receptors was 12.6 nM; at human OX2 receptors it was 63.1 nM.

With `N#Cc1ccc(-c2ncccn2)c(C(=O)N2[C@H](COc3ccc(Cl)cn3)CC[C@H]3C[C@H]32)c1` [Compound 3a, 3-((1R,3S,6S)-3-(((5-chloropyridin-2-yl)oxy)methyl)-2-azabicyclo[4.1.0]heptane-2-carbonyl)-4-(pyrimidin-2-yl)benzonitrile], the Kb at human OX1 receptors was 1.26 nM; on human OX2 receptors it was 63.1 nM.

For `O=C(c1cc(Cl)ccc1-c1ncccn1)N1[C@H](CNc2ccc(Cl)cn2)CC[C@H]2C[C@H]21` [Compound 1f, (5-chloro-2-(pyrimidin-2-yl)phenyl)((1R,3S,6S)-3-(((5-chloropyridin-2-yl)amino)methyl)-2-azabicyclo[4.1.0]heptan-2-yl)methanone], the antagonist equilibrium constant (Kb) on human OX1 receptors was 0.794 nM; on human OX2 receptors it was 15.8 nM.

For `O=C(c1cc(Cl)ccc1-c1ncccn1)N1[C@H](CNc2ccc(C(F)(F)F)cn2)CC[C@@H]2C[C@@H]21` [Compound 4b, (5-chloro-2-(pyrimidin-2-yl)phenyl)((1S,3S,6R)-3-(((5-(trifluoromethyl)pyridin-2-yl)amino)methyl)-2-azabicyclo[4.1.0]heptan-2-yl)methanone], the antagonist dissociation constant (Kb) on human OX1 receptors was 5.01 nM; on human OX2 receptors, 200 nM.

As for `O=C(c1cc(Cl)ccc1-c1ncccn1)N1[C@H](CNc2nccc(C(F)(F)F)n2)CC[C@H]2C[C@H]21` [Compound 1g, (5-chloro-2-(pyrimidin-2-yl)phenyl)((1R,3S,6S)-3-(((4-(trifluoromethyl)pyrimidin-2-yl)amino)methyl)-2-azabicyclo[4.1.0]heptan-2-yl)methanone], the Kb at human OX1 receptors was 1 nM; on human OX2 receptors it was 5.01 nM.

With `N#Cc1ccc(-c2ncccn2)c(C(=O)N2[C@H](CNc3cc(C(F)(F)F)ccn3)CC[C@H]3C[C@H]32)c1` [Compound 1h, 4-(pyrimidin-2-yl)-3-((1R,3S,6S)-3-(((4-(trifluoromethyl)pyridin-2-yl)amino)methyl)-2-azabicyclo[4.1.0]heptane-2-carbonyl)benzonitrile], the figures for the Kb on human OX1 receptors and on human OX2 receptors were 7.94 nM and 10 nM, respectively.

For the compound `O=C(c1cc(Cl)ccc1-c1ncccn1)N1[C@H](COc2ccc(C(F)(F)F)cn2)CC[C@H]2C[C@H]21` [Compound 3d, (5-chloro-2-(pyrimidin-2-yl)phenyl)((1R,3S,6S)-3-(((5-(trifluoromethyl)pyridin-2-yl)oxy)methyl)-2-azabicyclo[4.1.0]heptan-2-yl)methanone], the Kb on human OX1 receptors is 1.26 nM; on human OX2 receptors, 20 nM.

On to `Cc1ccc(-c2ncccn2)c(C(=O)N2[C@H](CNc3ccc(C(F)(F)F)cn3)CC[C@@H]3C[C@@H]32)c1` [Compound 4a, (5-methyl-2-(pyrimidin-2-yl)phenyl)((1S,3S,6R)-3-(((5-(trifluoromethyl)pyridin-2-yl)amino)methyl)-2-azabicyclo[4.1.0]heptan-2-yl)methanone], for which the antagonist equilibrium constant (Kb) at human OX1 receptors is 2.51 nM; on human OX2 receptors, 39.8 nM.

On to `O=C(c1cc(Cl)ccc1-c1ncccn1)N1[C@H](CNc2cc(C(F)(F)F)ccn2)CC[C@H]2C[C@H]21` [Compound 1a, (5-chloro-2-(pyrimidin-2-yl)phenyl)((1R,3S,6S)-3-(((4-(trifluoromethyl)pyridin-2-yl)amino)methyl)-2-azabicyclo[4.1.0]heptan-2-yl)methanone], for which the figures for the antagonist equilibrium constant (Kb) on human OX1 receptors and on human OX2 receptors were 1.58 nM and 3.98 nM, respectively.

`Cc1nc(C(=O)N2[C@H](CNc3ccc(C(F)(F)F)cn3)CC[C@H]3C[C@H]32)c(-c2ccccc2)s1` [Compound 2a, (2-methyl-5-phenylthiazol-4-yl)((1R,3S,6S)-3-(((5-(trifluoromethyl)pyridin-2-yl)amino)methyl)-2-azabicyclo[4.1.0]heptan-2-yl)methanone]: the Kb on human OX1 receptors and on human OX2 receptors was 2.51 nM in each case.

Regarding `Cc1ccc(-c2ncccn2)c(C(=O)N2[C@H](CNc3nccc(C(F)(F)F)n3)CC[C@H]3C[C@H]32)c1` [Compound 1k, (5-methyl-2-(pyrimidin-2-yl)phenyl)((1R,3S,6S)-3-(((4-(trifluoromethyl)pyrimidin-2-yl)amino)methyl)-2-azabicyclo[4.1.0]heptan-2-yl)methanone], the antagonist dissociation constant (Kb) on human OX1 receptors is 2.51 nM; at human OX2 receptors, 5.01 nM.
